Results taken from article PMC6934184, “Selective DNA-PKcs inhibition extends the therapeutic index of localized radiotherapy and chemotherapy” (The Journal of Clinical Investigation, 2019).

Molecular target: T1, CSNK2A2 (CK2 alpha 2) (Homo sapiens, UniProt P19784)
T1 construct: purchased Thermo Fisher Scientific (Life Technologies) SelectScreen
Test: SelectScreen Z'LYTE
Assay type: biochemical
Method in brief: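 Percent values come from Thermo SelectScreen profiling of NU5455, combining activity and binding assays. CSF1R was run in Z'LYTE format at Km app ATP, and CAMK1 in Adapta format with ATP listed at 10.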

T1 sequence (P19784 whole entry): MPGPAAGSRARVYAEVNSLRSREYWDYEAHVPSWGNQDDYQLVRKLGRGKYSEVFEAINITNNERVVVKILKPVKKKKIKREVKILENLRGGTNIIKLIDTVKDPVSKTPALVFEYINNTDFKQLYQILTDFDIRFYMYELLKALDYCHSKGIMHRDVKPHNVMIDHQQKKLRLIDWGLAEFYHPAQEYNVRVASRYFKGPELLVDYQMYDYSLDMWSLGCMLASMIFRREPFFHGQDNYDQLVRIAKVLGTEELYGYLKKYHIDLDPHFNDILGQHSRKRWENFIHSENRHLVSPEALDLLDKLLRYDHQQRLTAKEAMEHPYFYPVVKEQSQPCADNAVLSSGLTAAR

CN(C(=O)CN1CCOCC1)c1ccc2sc3c(-c4cccc5c(=O)cc(N6CC7CCC(C6)O7)oc45)cccc3c2c1 [NU5455]
inhibition at 1 µM: 8.7%
